In patent US9440987B2, “Aromatic ring compound” (TAKEDA PHARMACEUTICAL COMPANY LIMITED, priority 2012, dated 2016):

What was measured:
human MCHR1 [1] = target: T1, human MCHR1 (Homo sapiens, UniProt Q99705); test: Human MCH receptor 1 (MCHR1) binding inhibitory activity, [125I]-MCH(4-19) binding assay with MCHR1-expressing CHO cellular membrane fraction; conditions: test compound 0.1 μM, human MCHR1-expressing CHO cell membrane, read-out: Binding inhibition rate % (0.1 μM)
T1 construct: expressed in transfected cells; host or cells: CHO cell clone 57 (membrane fraction)
Procedure: Using human MCHR1(=SLC-1 receptor)-expressing CHO cell clone 57 described in WO01/82925, MCHR1-expressing CHO cellular membrane fractions were prepared by the following method. […] Homogenate buffer (10 mL, 10 mM NaHCO3, 5 mM EDTA, pH 7.5, 0.5 mM PMSF (phenylmethylsulfonyl fluoride), 20 mg/L leupeptin, 4 mg/L E-64, 1 mg/L pepstatin A) was added to the pellets of the cells and, using Polytron Homogenizer, the mixture was homogenated. The supernatant obtained after centrifugation at 400×g for 10 min was further centrifuged at 100,000×g for 1 hr to give precipitate of the membrane fraction. The precipitate were suspended in 2 mL of assay buffer [20 mM Tris-HCl (pH 7.5), 5 mM EDTA, 0.5 mM PMSF, 20 mg/L leupeptin, 4 mg/L E-64, 1 mg/L pepstatin A]. The membrane fractions were suspended in assay buffer to a protein concentration of 2 mg/mL, and after dispensing, preserved at −80° C. and used upon thawing each time when in use. The MCHR1 ligand binding inhibitory activity of the test compound was determined as follows. An MCHR1-expressing CHO cellular membrane fraction (173 μL) diluted with an assay buffer was dispensed to a 96 well polypropylene plate (3363, Corning). […] Using a treating glass filter plate (GF/C, PerkinElmer) with polyethyleneimine, which had been previously set, the plate was suction-filtered and washed three times with washing buffer (50 mM Tris-HCl buffer pH 7.5). The glass filter plate was dried, MicroScinti0 (PerkinElmer) was added at 25 μL/well, and the resulting radioactivity was measured by TopCount liquid scintillation counter (PerkinElmer). The binding inhibition rate of the test compound was calculated by the following formula.

human MCHR1 [2] = target: T1, human MCHR1; test: MCH receptor 1 antagonistic activity, Ca2+ mobilization assay in human MCHR1-expressing CHO cells (clone #4); assay type: cell-based; conditions: test compound 0.1 μM, ligand MCH(4-19) 2 nM, read-out: Inhibition rate % (0.1 μM)
Procedure: Measurement of MCH Receptor 1 Antagonistic Activity of Test Compound Using Ca^2+ Mobilization Assay
Using an expression vector plasmid introduced with human MCHR1 gene for expression in animal cells, human MCHR1 gene was introduced into CHO cells (CHO dhfr^−) by Lipofectamine LTX (Invitrogen). The cells were cultured in selection MEMα medium [445 mL of MEMα medium without nucleic acid and added with 5 mL of Penicillin-Streptomycin (Invitrogen) and 50 mL of dialyzed fetal bovine serum]. Colony 24 clones grown in the selection medium, which were human MCHR1 gene-expressing CHO cell candidates, were selected. […] In the following test, this human MCHR1-expressing CHO cell (clone #4) was used. An integrated dispensing function fluorometer (CellLux, PerkinElmer) was used for Ca^2+ mobilization assay. The CHO cells were sown in a 96 well plate (type 3904, Corning) with a black wall and clear well bottom at a density of 20000 cells/well, and cultured in an incubator for about 24 hr at 5% CO2, 37° C. The medium was removed, and the cells were washed with phosphate buffered saline (PBS). A Ca^2+ indicator dye reagent (DOJINDO LABORATORIES, Ca screening no-wash kit Fluo4) was added at 100 μL/well, and the dye was allowed to penetrate into the cell for 30 min in an incubator at 5% CO2, 37° C. The plate was set on a plate reader. First, a test compound solution diluted with an assay buffer [10 mM HEPES (pH 7.4), 1× assay buffer containing 0.1% BSA (DOJINDO LABORATORIES, attached to Ca screening no-wash kit Fluo4)] or DMSO solution was added at 50 μL/well, and then ligand MCH (4-19) peptide (final concentration 2 nM) diluted with assay buffer or DMSO was added at 50 μL/well, during which changes in intracellular fluorescence were measured at 2 second intervals. […]
The inhibition rates (%) of test compounds (0.1 μM) as antagonist activity measured using human MCHR1-expressing CHO cells (clone #4) are shown in the following Table 3.

T1 sequence (Q99705 whole entry): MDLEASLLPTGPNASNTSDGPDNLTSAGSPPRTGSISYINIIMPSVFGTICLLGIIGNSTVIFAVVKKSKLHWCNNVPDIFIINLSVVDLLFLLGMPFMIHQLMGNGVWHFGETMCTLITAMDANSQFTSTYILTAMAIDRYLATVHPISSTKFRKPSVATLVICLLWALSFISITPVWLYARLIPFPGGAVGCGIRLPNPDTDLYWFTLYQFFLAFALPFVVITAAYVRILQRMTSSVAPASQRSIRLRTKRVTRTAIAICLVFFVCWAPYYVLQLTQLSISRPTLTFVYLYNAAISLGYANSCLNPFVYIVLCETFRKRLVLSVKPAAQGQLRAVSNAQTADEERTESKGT

SMILES	inhibition at 0.1 µM (human MCHR1 [1]) [%]	inhibition at 0.1 µM (human MCHR1 [2]) [%]
Cn1c([C@H]2C[C@H]2C(C)(C)O)nc2ccc(-n3ccc4oc(-c5ccc(Cl)cc5)cc4c3=O)cc21 (racemic) [Example 4, 2-(4-Chlorophenyl)-5-(2-((1RS,2SR)-2-(2-hydroxypropan-2-yl)cyclopropyl)-1-methyl-1H-benzimidazol-6-yl)furo[3,2-c]pyridin-4(5H)-one]	91	–
Cc1c(C2CC2)nc2ccc(-n3ccc4oc(-c5ccc(Cl)cc5)cc4c3=O)cn12 [Example 1, 2-(4-Chlorophenyl)-5-(2-cyclopropyl-3-methylimidazo[1,2-a]pyridin-6-yl)furo[3,2-c]pyridin-4(5H)-one]	100	82
Cn1c(C2CC2)nc2ccc(-n3ccc4oc(-c5ccc(Cl)cc5)cc4c3=O)cc21 [Example 2, 2-(4-Chlorophenyl)-5-(2-cyclopropyl-1-methyl-1H-benzimidazol-6-yl)furo[3,2-c]pyridin-4(5H)-one]	79	70
Cc1c(C2CC2)nc2ccc(-n3ccc4oc(-c5ccc(Cl)cn5)cc4c3=O)cn12 [Example 3, 2-(5-Chloropyridin-2-yl)-5-(2-cyclopropyl-3-methylimidazo[1,2-a]pyridin-6-yl)furo[3,2-c]pyridin-4(5H)-one]	74	92
